Reference: publication PMC4210897, “Antimicrobial Activity of Peptides Derived from Olive Flounder Lipopolysaccharide Binding Protein/Bactericidal Permeability-Increasing Protein (LBP/BPI)” (Marine Drugs, 2014)
Where no end group is shown, it is not given here.

Key:
B. subtilis KCTC1021 = assay: Ultrasensitive radial diffusion assay (URDA), MEC; type: cell-based, Bacillus subtilis; details: B. subtilis KCTC1021, Gram +, 10 mM PB pH 6.6, 37 °C, x-intercept of units vs log10 concentration, triplicate averaged
Procedure: (§1) The antimicrobial activity of the purified peptide was assessed as described previously. We tested the synthetic peptides against several Gram-positive bacteria including two Bacillus subtilis strains, Micrococcus luteus, Staphylococcus aureus, and Streptococcus iniae, Gram-negative bacteria including three Escherichia coli strains, Aeromonas hydrophila, Edwardsiella tarda, Pseudomonas aeruginosa, Vibrio parahemolyticus, and Salmonella enteric, as well as the yeast Candida albicans. All strains were grown overnight for 18 h in trypticase soy broth (TSB) or sabouraud dextrose broth (SDB) at the appropriate temperature (25 °C for A. hydrophila, E. tarda, P. aeruginosa, S. iniae, and V. parahemolyticus and 37 °C for the other strains). After an overnight incubation, the bacterial and C. albicans suspensions were diluted to a McFarland turbidity standard of 0.5 (Vitek Colorimeter #52-1210; Hach, Loveland, CO, USA) corresponding to ~10^8 CFU/mL for bacteria and ~10^6 CFU/mL for C. albicans. One-half milliliter of diluted bacterial or C. albicans suspension was added to 9.5 mL of underlay gel containing 5 × 10^6 CFU/mL or 5 × 10^4 CFU/mL in 10 mM phosphate buffer (PB; pH 6.6) with 0.03% TSB or 0.03% SDB and 1% Type I (low EEO) agarose. The purified peptide was serially diluted twofold in 5 μL of acidified water (0.01% HAc), and each dilution was added to 2.5-mm-diameter wells made in the 1-mm-thick underlay gels. After incubation for 3 h at either 25 °C (for A. hydrophila, E. tarda, P. aeruginosa, S. iniae, and V. parahemolyticus) or 37 °C (the other strains), the bacterial or yeast suspension was overlaid with 10 mL of double-strength overlay gel containing 6% TSB or 6% SDB with 10 mM PB (pH 6.6) in 1% agarose. Plates were incubated for an additional 18–24 h, after which the clearing zone diameters were measured. After subtracting the diameter of the well, the clearing zone diameter was expressed in units (0.1 mm = 1 U).
(§2) All tested bacteria and yeast were prepared as described above. The minimal effective concentration (MEC, μg/mL) of the synthetic peptides was calculated as the x-intercept of a plot of units against the log10 of the peptide concentration. […] The antimicrobial assay was performed in triplicate and the results were averaged.

B. subtilis RM125 = assay: URDA, MEC; type: cell-based, Bacillus subtilis; details: B. subtilis RM125, Gram +, pH 6.6, 37 °C, triplicate averaged
Procedure: as §1, §2

M. luteus ATCC9341 = assay: URDA, MEC; type: cell-based, Micrococcus luteus; details: M. luteus ATCC9341, Gram +, pH 6.6, 37 °C, triplicate averaged
Procedure: as §1, §2

S. aureus RM4220 = assay: URDA, MEC; type: cell-based, Staphylococcus aureus; details: S. aureus RM4220, Gram +, pH 6.6, 37 °C, triplicate averaged
Procedure: as §1, §2

E. coli KCTC1116 = assay: URDA, MEC; type: cell-based, Escherichia coli; details: E. coli KCTC1116, Gram −, pH 6.6, 37 °C, triplicate averaged
Procedure: as §1, §2

E. coli ML35p = assay: URDA, MEC; type: cell-based, Escherichia coli; details: Gram −, pH 6.6, 37 °C, triplicate averaged
Procedure: as §1, §2

P. aeruginosa KCTC2004 = assay: URDA, MEC; type: cell-based, Pseudomonas aeruginosa; details: P. aeruginosa KCTC2004, Gram −, pH 6.6, 25 °C, triplicate averaged
Procedure: as §1, §2

S. enterica KCTC2514 = assay: URDA, MEC; type: cell-based, Salmonella enteric; details: S. enterica KCTC2514, Gram −, pH 6.6, 37 °C, triplicate averaged
Procedure: as §1, §2

A. hydrophila KCTC2358 = assay: URDA, MEC; type: cell-based, Aeromonas hydrophila; details: fish pathogen A. hydrophila KCTC2358, Gram −, pH 6.6, 25 °C, triplicate averaged
Procedure: as §1, §2

E. tarda H-4 = assay: URDA, MEC; type: cell-based, Edwardsiella tarda; details: fish pathogen E. tarda H-4, Gram −, pH 6.6, 25 °C, triplicate averaged
Procedure: as §1, §2

S. iniae FP5229 = assay: URDA, MEC; type: cell-based, Streptococcus iniae; details: fish pathogen S. iniae FP5229, Gram +, pH 6.6, 25 °C, triplicate averaged
Procedure: as §1, §2

[1] = tested on: V. parahemolyticus KCCM41664; assay: URDA, MEC; type: cell-based, Vibrio parahemolyticus; details: fish pathogen V. parahemolyticus KCCM41664, Gram −, pH 6.6, 25 °C, triplicate averaged
Procedure: as §1, §2

C. albicans KCTC7965 = assay: URDA, MEC; type: cell-based, Candida albicans; details: C. albicans KCTC7965, yeast, pH 6.6, 37 °C, triplicate averaged
Procedure: as §1, §2

[2] = tested on: E. coli ML35p outer membrane; assay: Outer membrane permeabilization, NPN uptake assay; type: cell-based, Escherichia coli; details: peptide 40 μg/mL, 3 min after addition, 25 °C, 5 mM HEPES pH 7.2; order 2A > 6A > 1N > 5A; triplicate
Procedure: (§3) The outer membrane-permeabilizing activity of peptides was determined using the 1-N-phenylnapthylamine (NPN) uptake assay as described by Koo et al.. Briefly, an overnight culture of E. coli ML35p was transferred to fresh TSB medium and grown to A600 of 0.5–0.6. Cells were harvested, washed, and resuspended in the same volume of buffer (5 mM HEPES, pH 7.2, 5 mM KCN, and 5 mM glucose). Next, 20 μL of 0.5 mM NPN was added and mixed with 1 mL of cells, and peptide samples (40 μg/mL) were added after 3 min. The increase in fluorescence due to partitioning of NPN into the outer membrane was measured 3 min after the addition of peptides using a spectrofluorometer (LS 50B Fluorescence Spectrometer; PerkinElmer, Waltham, MA, USA) at an excitation wavelength of 350 nm and an emission wavelength of 420 nm at 25 °C. The extent of cytoplasmic membrane permeabilization was determined by measuring β-galactosidase activity in E. coli ML35p using O-nitrophenyl-β-D-galactopyranoside (ONPG), a nonmembrane-permeative chromogenic substrate. Mid-logarithmic phase E. coli cells were washed in 10 mM sodium phosphate buffer (NaPB), pH 7.4, and resuspended in the same buffer with 1.5 mM ONPG. The hydrolysis of ONPG to O-nitrophenol over time was monitored spectrophotometrically at 420 nm following the addition of peptide samples. Membrane permeabilization assays were performed in triplicate and the results were averaged.

[3] = tested on: E. coli ML35p inner cytoplasmic membrane; assay: Cytoplasmic membrane permeabilization, β-galactosidase/ONPG assay; type: cell-based, Escherichia coli; details: peptide 40 μg/mL, 10 mM NaPB pH 7.4, 1.5 mM ONPG; triplicate
Procedure: as §3

| Substance | Minimal Effectives Concentration (B. subtilis KCTC1021) [µg/mL] | Minimal Effectives Concentration (B. subtilis RM125) [µg/mL] | Minimal Effectives Concentration (M. luteus ATCC9341) [µg/mL] | Minimal Effectives Concentration (S. aureus RM4220) [µg/mL] | Minimal Effectives Concentration (E. coli KCTC1116) [µg/mL] | Minimal Effectives Concentration (E. coli ML35p) [µg/mL] | Minimal Effectives Concentration (P. aeruginosa KCTC2004) [µg/mL] | Minimal Effectives Concentration (S. enterica KCTC2514) [µg/mL] | Minimal Effectives Concentration (A. hydrophila KCTC2358) [µg/mL] | Minimal Effectives Concentration (E. tarda H-4) [µg/mL] | Minimal Effectives Concentration (S. iniae FP5229) [µg/mL] | Minimal Effectives Concentration [1] [µg/mL] | Minimal Effectives Concentration (C. albicans KCTC7965) [µg/mL] | Outer membrane permeabilization ability (NPN fluorescence) [2] | Inner cytoplasmic membrane permeabilization ability (ONPG hydrolysis, 420 nm) [3] |
| --- | --- | --- | --- | --- | --- | --- | --- | --- | --- | --- | --- | --- | --- | --- | --- |
| KLVKTQLKVLK [ofLBP 4N] | 62.5 | 250.0 | 250.0 | 62.5 | 1.5 | 250.0 | >250.0 | 250.0 | >250.0 | >250.0 | >250.0 | 1.3 | 125.0 | no inner or outer membrane permeability | no permeabilization ability |
| MKLVKTWLKVLK-NH2 [ofLBP 6A] | 1.4 | 1.8 | 2.2 | 2.7 | 3.8 | 1.8 | 4.6 | 2.6 | 2.8 | 62.5 | 1.2 | 0.9 | 2.7 | significant outer membrane permeabilization ability | strong permeabilization ability |
| RFPKLMMKLLV-NH2 [ofLBP 2A] | 0.8 | 1.2 | 5.7 | 5.0 | 1.2 | 0.6 | 6.6 | 1.2 | 3.6 | 62.5 | 3.0 | 1.7 | 5.6 | significant outer membrane permeabilization ability | strong permeabilization ability |
| KLVKTWLKVLK [ofLBP 5A] | 0.7 | 4.2 | 8.0 | 3.7 | 1.6 | 1.6 | 8.0 | 3.5 | 5.0 | 250.0 | 2.7 | 1.2 | 4.0 | significant outer membrane permeabilization ability | no permeabilization ability |
| Piscidin 1 [reference compound] | 2.3 | 4.5 | 2.3 | 2.2 | 7.0 | 2.3 | 8.0 | 7.0 | 10.0 | 125.0 | 6.5 | 1.8 | >62.5 | strong permeabilization ability | strong cytoplasmic membrane permeabilizing activity |
| RFPGLMMKLLV-NH2 (C-terminus assumed) [ofLBP 1N] | 1.4 | 1.0 | 5.3 | 5.6 | 1.7 | 0.8 | 6.4 | 1.2 | 4.8 | 125.0 | 5.3 | 2.2 | 5.9 | significant outer membrane permeabilization ability | strong permeabilization ability |
